{"source": "patent US20230295235A1", "about": "“COMPOUNDS TARGETING ALPHA4-BETA7 INTEGRIN” (ZEALAND PHARMA A/S, priority 2020, published 2023)", "key": {"[1]": {"test_system": "DSS induced ulcerative colitis", "experiment": "DSS induced chronic colitis (ulcerative colitis) mouse model", "format": "in vivo", "description": "The current study was conducted in the mice model of dextran Sodium Sulfate (DSS) induced ulcerative colitis (UC). DSS induces chronic colitis in experimental animals when given orally in drinking water for 7 days followed by no DSS in drinking water. Chronic intestinal inflammation is associated with body weight loss, diarrhea, blood in the stool and the infiltration of leucocytes from the blood to intestinal tissue. Among those cells, subpopulations of T lymphocytes such as Th1 and Th17 play an important role in the initiation and chronicity of inflammation. Trafficking of T cells from blood to target tissue is a complex process that is controlled by molecularly distinct adhesion and signaling steps. As such, the α4β7 and MAdCAM-1 adhesion mechanism may be closely involved in lymphocyte trafficking to the site of inflammation in the gut.\nEvaluation of the therapeutic potential of the compound of Example 1 (cpd 1) in a mouse model of Dextran Sodium Sulfate (DSS) induced ulcerative colitis (UC)\nFemale C57BI/6 mice (Charles River, St-Constant, Qc), weighting 15-20 g at delivery were used for this study. Following arrival in the animal facility, all animals were subjected to a general health evaluation. […]\nSpecific symptoms associated to UC were scored based on the severity of each particular symptoms: • 1- blood in stool (negative hemoccult, positive hemoccult, visible blood traces in stool, rectal bleeding); • 2- stool consistency (normal, soft, diarrhea); • 3- body weight loss (score 0: 0-1 %; 1: 1.5-5%; 2: 5.5-10%; 3: 10.5-15 %; 4: 15.5-20 %; 5: >20%). […]\nOnce the mouse was euthanized, the colon was collected, and its length was measured. Lesion length was also measured. Colon lesions was scored macroscopically based on inflammation, thickening and vascularization to give an overall macroscopic inflammation score of each animal in the study. […]\nStatistical differences among groups were determined using a two-way ANOVA, followed by a post-hoc analysis, using Tukey’s multiple comparison test, to compare each group to the DSS+vehicle control group. […]"}, "[2]": {"test_system": "integrin α4β7+ T helper memory lymphocytes in mesenteric lymph nodes", "experiment": "In vivo T lymphocyte trafficking analysis in DSS mouse model of colitis", "description": "Animal care: The animal care facility employed is accredited by the Canadian Council on Animal Care (CCAC). This study was approved by a certified Animal Care Committee and complied with CACC standards and regulations governing the use of animals for research. The animals were housed under standardized environmental conditions. A standard certified commercial rodent diet was provided ad libitum. Tap water was provided ad libitum at all times.\nDextran sulfate sodium (DSS) was administered to C57BL/6 female mice for five days through addition to their drinking water at 3%. Body weight and disease activity index (“DAI”) were measured on day 5 in order to distribute DSS-treated animals in uniform groups prior to dosing. DAI was scored based on the severity of three specific symptoms associated with colitis: 1- blood in stool (negative hemoccult, positive hemoccult, blood traces in stool visible, rectal bleeding); 2- stool consistency (normal, soft but still formed, very soft, diarrhea); 3- body weight loss.\nFrom day 6 to day 9, the compound of Example 1 or the vehicle were administered orally daily at 5 mL/kg. […] Cell populations were then analyzed using FACSCanto cytometer and gating on CD4+, CD44^hi, CD45RB^low, α4β7+.\nStatistical analysis was performed using GraphPad Prism. Differences among groups were evaluated by two-way ANOVA, with a 95% confidence interval. […]"}}}
{"smiles": "CC(C)C[C@@H]1NC(=O)c2ccc(-c3ccc(N4CCN(C(=O)c5ccccc5-c5ccccc5C(=O)N5CCN(c6ccc(-c7ccc8cc7CNC(=O)[C@@H]7CCCN7[C@H](C(=O)NC(C)(C)C)[C@H](C)NC(=O)[C@H]([C@@H](C)O)NC(=O)[C@H](CC(=O)O)NC(=O)[C@H](CC(C)C)NC8=O)cc6)CC5)CC4)cc3)c(c2)CNC(=O)[C@@H]2CCCN2[C@H](C(=O)NC(C)(C)C)[C@H](C)NC(=O)[C@H]([C@@H](C)O)NC(=O)[C@H](CC(=O)O)NC1=O", "note": "[Example 1, 2,2′-((S,S,S,S,S,S,1^2,8S,11S,14S,17S,18S)-((([1,1′-Biphenyl]-2,2′-Dicarbonyl)-Bis(Piperazine-4,1-Diyl))Bis(4,1-Phenylene))Bis(18-(Tert-Butylcarbamoyl)-14-((R)-1-Hydroxyethyl)-8-Isobutyl-17-Methyl-2,6,9,12,15-Pentaoxo-3,7,10,13,16-Pentaaza-1(2,1)-Pyrrolidina-5(1,3)-Benzenacyclooctadecaphane-5^6,11-Diyl))-Diacetic Acid]", "values": [{"measurement": "effect on DAI score", "setting": "[1]; 100 mg/kg p.o. once daily day 0-14, DSS mice, vs DSS + vehicle", "result": "did not lead to any beneficial effect"}, {"measurement": "macroscopic inflammation score, % less than DSS + vehicle", "setting": "[1]; 100 mg/kg p.o. once daily day 0-14, colon at day 14, significant difference", "result": "around 30%"}, {"measurement": "MPO U/g colon protein, % less than DSS + vehicle", "setting": "[1]; 100 mg/kg p.o. once daily day 0-14, medio-distal colon, ELISA, not statistically significant", "result": "approximately 49%"}, {"measurement": "reduction in α4β7+ T cells in the mesenteric lymph nodes", "setting": "[2]; 100 mg/kg orally daily day 6 to 9, DSS-treated C57BL/6 female mice, vs DSS alone", "result": 60, "unit": "%"}, {"measurement": "detection of integrin α4β7+ T helper memory lymphocytes in the mesenteric lymph nodes (MLN)", "setting": "[2]; 10, 30 or 100 mg/kg orally daily day 6 to 9, DSS-treated mice", "result": "reduced the detection of integrin α4β7+ T helper memory lymphocytes"}]}
